From US20150045341A1, “DISUBSTITUTED ARYL AZETIDINE DERIVATIVES AS SPHINGOSINE-1 PHOSPHATE RECEPTORS MODULATORS” (Allergan, Inc., priority 2013, published 2015)
pEC50: −log10 of the molar value.

These compounds were tested against T1, human S1P1 receptor (Homo sapiens, UniProt P21453) (assay: GTP γ35S binding assay for S1P1 activity). Conditions: membranes of cells stably expressing the S1P1 receptor, test compounds 0.08 to 5,000 nM, 30 min at 25° C.
T1 construct: expressed in transfected cells; membranes from cells stably expressing the S1P1 receptor
T1 sequence (P21453 whole entry): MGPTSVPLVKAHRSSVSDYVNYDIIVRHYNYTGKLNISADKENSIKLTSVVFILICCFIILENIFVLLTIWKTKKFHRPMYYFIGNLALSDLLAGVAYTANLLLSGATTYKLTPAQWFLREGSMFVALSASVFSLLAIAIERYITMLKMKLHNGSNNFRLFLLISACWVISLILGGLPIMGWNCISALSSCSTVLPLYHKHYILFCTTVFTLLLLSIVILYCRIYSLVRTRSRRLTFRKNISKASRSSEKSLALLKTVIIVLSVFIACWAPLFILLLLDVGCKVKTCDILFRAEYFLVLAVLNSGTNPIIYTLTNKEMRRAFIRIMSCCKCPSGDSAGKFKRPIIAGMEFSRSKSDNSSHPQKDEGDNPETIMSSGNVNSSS
Assay type: biochemical
Description: Compounds were synthesized and tested for S1P1 activity using the GTP γ^35S binding assay. These compounds may be assessed for their ability to activate or block activation of the human S1P1 receptor in cells stably expressing the S1P1 receptor.
GTP γ^35S binding was measured in the medium containing (mM) HEPES 25, pH 7.4, MgCl2 10, NaCl 100, dithiothreitol 0.5, digitonin 0.003%, 0.2 nM GTP γ^35S, and 5 μg membrane protein in a volume of 150 μl. Test compounds were included in the concentration range from 0.08 to 5,000 nM unless indicated otherwise. Membranes were incubated with 100 μM 5′-adenylylimidodiphosphate for 30 min, and subsequently with 10 μM GDP for 10 min on ice. Drug solutions and membrane were mixed, and then reactions were initiated by adding GTP γ^35S and continued for 30 min at 25° C. Reaction mixtures were filtered over Whatman GF/B filters under vacuum, and washed three times with 3 mL of ice-cold buffer (HEPES 25, pH7.4, MgCl2 10 and NaCl 100). Filters were dried and mixed with scintillant, and counted for ^35S activity using a β-counter. Agonist-induced GTP γ^35S binding was obtained by subtracting that in the absence of agonist. Binding data were analyzed using a non-linear regression method. In case of antagonist assay, the reaction mixture contained 10 nM […] in the presence of test antagonist at concentrations ranging from 0.08 to 5000 nM.
Compound `CCCC(CCCOc1c(C)cc(CN2CC(C(=O)O)C2)cc1C)Cc1ccc(C)c(C)c1` (stereo not drawn) [1-(4-{[4-(3,4-dimethylbenzyl)heptyl]oxy}-3,5-dimethylbenzyl)azetidine-3-carboxylic acid] has a pEC50 of 8.69. `CCCC(CCCOc1ccc(CN2CC(C(=O)O)C2)cc1)Cc1ccc(C)c(C)c1` (stereo not drawn) [Compound 3, 1-(4-{[4-(3,4-Dimethylbenzyl)heptyl]oxy}benzyl)azetidine-3-carboxylic acid] gave a pEC50 of 8.19. Compound `CCCCCC(CCCOc1ccc(CN2CC(C(=O)O)C2)cc1Cl)Cc1ccc(C)c(C)c1` (stereo not drawn) [Compound 13, 1-(3-Chloro-4-{[4-(3,4-dimethylbenzyl)nonyl]oxy}benzyl)azetidine-3-carboxylic acid] has a pEC50 of 7.86. For `CCCCC(CCCOc1c(C)cc(CN2CC(C(=O)O)C2)cc1C)Cc1ccc(C)c(C)c1` (stereo not drawn) [Compound 6, 1-(4-{[4-(3,4-Dimethylbenzyl)octyl]oxy}-3,5-dimethylbenzyl)azetidine-3-carboxylic acid], the pEC50 was 7.93. Compound `CCCCC(CCCOc1ccc(CN2CC(C(=O)O)C2)cc1Br)Cc1ccc(C)c(C)c1` (stereo not drawn) [Compound 8, 1-(3-Bromo-4-{[4-(3,4-dimethylbenzyl)octyl]oxy}benzyl)azetidine-3-carboxylic acid] has a pEC50 of 8.18. With `CCCC(CCCOc1ccc(CN2CC(C(=O)O)C2)cc1Cl)Cc1ccc(C)c(C)c1` (stereo not drawn) [Compound 14, 1-(3-Chloro-4-{[4-(3,4-dimethylbenzyl)heptyl]oxy}benzyl)azetidine-3-carboxylic acid] the pEC50 was 7.94. `CCCCC(CCCOc1ccc(CN2CC(C(=O)O)C2)cc1C)Cc1ccc(C)c(C)c1` (stereo not drawn) [Compound 7, 1-(4-{[4-(3,4-Dimethylbenzyl)octyl]oxy}-3-dimethylbenzyl)azetidine-3-carboxylic acid] was tested, and the pEC50 was 8.24. For `CCC(CCCOc1ccc(CN2CC(C(=O)O)C2)cc1)Cc1ccc(C)c(C)c1` (stereo not drawn) [Compound 4, 1-(4-{[4-(3,4-Dimethylbenzyl)hexyl]oxy}benzyl)azetidine-3-carboxylic acid], the pEC50 was 7.16. Compound `CCCCC(CCCOc1ccc(CN2CC(C(=O)O)C2)cc1Cl)Cc1ccc(C)c(C)c1` (stereo not drawn) [1-(3-chloro-4-{[4-(3,4-dimethylbenzyl)octyl]oxy}benzyl)azetidine-3-carboxylic acid] has a pEC50 of 8.57. `CCCCC(CCCOc1ccc(CN2CC(C(=O)O)C2)cc1F)Cc1ccc(C)c(C)c1` (stereo not drawn) [1-(4-{[4-(3,4-dimethylbenzyl)octyl]oxy}-3-fluorobenzyl)azetidine-3-carboxylic acid] was tested, and the pEC50 was 8.27. `CCCCCC(CCCOc1ccc(CN2CC(C(=O)O)C2)cc1)Cc1ccc(C)c(C)c1` (stereo not drawn) [Compound 1, 1-(4-{[4-(3,4-Dimethylbenzyl)nonyl]oxy}benzyl)azetidine-3-carboxylic acid] gave a pEC50 of 8.22. With `CCCCC(CCCOc1c(F)cc(CN2CC(C(=O)O)C2)cc1OC)Cc1ccc(C)c(C)c1` (stereo not drawn) [1-(4-{[4-(3,4-dimethylbenzyl)octyl]oxy}-3-fluoro-5-methoxybenzyl)azetidine-3-carboxylic acid] the pEC50 was 8.54. With `CCCC(CCCOc1ccc(CN2CC(C(=O)O)C2)cc1C)Cc1ccc(C)c(C)c1` (stereo not drawn) [Compound 16, 1-(4-{[4-(3,4-Dimethylbenzyl)heptyl]oxy}-3-methylbenzyl)azetidine-3-carboxylic acid] the pEC50 was 7.67. `CCCCC(CCCOc1ccc(CN2CC(C(=O)O)C2)cc1)Cc1ccc(C)c(C)c1` (stereo not drawn) [Compound 2, 1-(4-{[4-(3,4-Dimethylbenzyl)octyl]oxy}benzyl)azetidine-3-carboxylic acid] gave a pEC50 of 8.99. With `CCCCCCC(CCCOc1ccc(CN2CC(C(=O)O)C2)cc1)Cc1ccc(C)c(C)c1` (stereo not drawn) [Compound 5, 1-(4-{[4-(3,4-Dimethylbenzyl)decyl]oxy}benzyl)azetidine-3-carboxylic acid] the pEC50 was 6.99.
